Some test systems named below: OVCAR-5 ovarian; PC-3 prostate; T-47D breast; SK-MEL-5 melanoma; HCT-15 colon; RXF 393 renal; NCI/ADR-RES ovarian; U251 CNS; NCI-H460 lung; SW-620 colon.
Common to all, as to test: inhibition of tumour cell growth, NCI panel, 48 h

Structures are written as SMILES.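 Five concentrations, 48 hours, 96-well plates. GI50 is the concentration that inhibits growth by half. Definition used: TGI = concentration required for complete inhibition of growth.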 A value given as a limit tells only on which side of the number the result lay.

Take `Cc1ccc2c(O)c(O)cc(NC(C)CCCN)c2n1` (stereo not drawn): the GI50 was 7.36 µM with OVCAR-5 ovarian; 22900 nM in the assay on PC-3 prostate; 6570 nM in the assay with T-47D breast; 9.38 µM with SK-MEL-5 melanoma; more than 79.1 µM in the assay on HCT-15 colon; more than 69.1 µM in the assay on RXF 393 renal. In addition, the GI50 with NCI/ADR-RES ovarian is more than 66.9 µM; in the assay with U251 CNS, 3.67 µM; in the assay on NCI-H460 lung, 36.4 µM; in the assay with SW-620 colon, 10200 nM. Further, the TGI in the assay on OVCAR-5 ovarian was 25.2 µM; with PC-3 prostate, more than 66.5 µM; in the assay on T-47D breast, 38.3 µM; in the assay on SK-MEL-5 melanoma, 25.3 µM; with HCT-15 colon it was more than 100 µM; in the assay on RXF 393 renal, more than 100000 nM. Besides, the TGI is more than 100 µM with NCI/ADR-RES ovarian, 14.8 µM with U251 CNS, more than 100 µM in the assay with NCI-H460 lung and 51.3 µM with SW-620 colon.
`C=C1C(=O)O[C@H]2[C@H]1CC/C(COC(=O)NCCc1c[nH]c3ccc(OC)cc13)=C\CC[C@@]1(C)O[C@@H]21`: the GI50 was 1.82 µM in the assay on OVCAR-5 ovarian; 1990 nM with PC-3 prostate; 1810 nM in the assay with T-47D breast; 3.13 µM with SK-MEL-5 melanoma; 1.14 µM in the assay on HCT-15 colon; 1.46 µM with RXF 393 renal. The GI50 with NCI/ADR-RES ovarian is 7.57 µM; in the assay with U251 CNS, 4.3 µM; with NCI-H460 lung, 6.49 µM; with SW-620 colon, 1940 nM. Besides, the TGI in the assay with OVCAR-5 ovarian was determined as 4 µM; in the assay on PC-3 prostate it was 4.6 µM; in the assay on T-47D breast, 4.53 µM; with SK-MEL-5 melanoma it was 10.6 µM; in the assay with HCT-15 colon, 2.45 µM; in the assay on RXF 393 renal it was 2920 nM. For the same compound, the TGI was found to be 29.2 µM with NCI/ADR-RES ovarian, 15.9 µM with U251 CNS, 25.2 µM in the assay with NCI-H460 lung and 5.27 µM in the assay on SW-620 colon.
For `CN1CCN(Cc2ccc(NC(=O)c3ccc(C#Cc4c(N)ncc5ccc(F)cc45)cc3)cc2C(F)(F)F)CC1`, the GI50 in the assay on OVCAR-5 ovarian is 0.993 µM; with PC-3 prostate, 834 nM; in the assay on T-47D breast, 878 nM; with SK-MEL-5 melanoma, 0.871 µM; in the assay on HCT-15 colon, 0.892 µM; in the assay on RXF 393 renal it was 0.835 µM. The GI50 was 1.08 µM in the assay with NCI/ADR-RES ovarian, 0.851 µM with U251 CNS, 1.06 µM in the assay on NCI-H460 lung and 972 nM in the assay with SW-620 colon. For the same compound, the TGI in the assay with OVCAR-5 ovarian was 1.85 µM; in the assay with PC-3 prostate, 1.61 µM; with T-47D breast, 1.85 µM; with SK-MEL-5 melanoma it was 1.58 µM; in the assay with HCT-15 colon it was 1.74 µM; in the assay on RXF 393 renal it was 1600 nM. For the same compound, the TGI came out at 2.32 µM with NCI/ADR-RES ovarian, 1.59 µM in the assay with U251 CNS, 2.02 µM in the assay on NCI-H460 lung and 1.87 µM in the assay on SW-620 colon.
`O=Nc1ccc2ccccc2c1O`: the GI50 with OVCAR-5 ovarian was 14.1 µM; in the assay on PC-3 prostate it was 2610 nM; in the assay on T-47D breast it was 2750 nM; with SK-MEL-5 melanoma it was 2.71 µM; in the assay with HCT-15 colon, 10.2 µM; in the assay with RXF 393 renal it was 14 µM. The GI50 with NCI/ADR-RES ovarian was 2.62 µM; in the assay on U251 CNS, 3.11 µM; in the assay on NCI-H460 lung it was 15.5 µM; with SW-620 colon, 2880 nM. Moreover, the TGI in the assay with OVCAR-5 ovarian worked out at 30.4 µM; in the assay on PC-3 prostate, 11.9 µM; in the assay with T-47D breast, 6.08 µM; with SK-MEL-5 melanoma it was 8.41 µM; in the assay on HCT-15 colon, 30.8 µM; in the assay on RXF 393 renal it was 27300 nM. For the same compound, the TGI amounted to 8.22 µM with NCI/ADR-RES ovarian, 9.46 µM in the assay with U251 CNS, 36.6 µM in the assay on NCI-H460 lung and 10.5 µM with SW-620 colon.
On to `COc1ccccc1C#Cc1ccccc1C#CCCCCCC#Cc1ccccc1C#Cc1ccccc1OC`, for which the GI50 was more than 100 µM with OVCAR-5 ovarian; more than 100000 nM with PC-3 prostate; 6750 nM with T-47D breast; more than 100 µM in the assay on SK-MEL-5 melanoma; 40.9 µM with HCT-15 colon; 26.6 µM with RXF 393 renal. Also, the GI50 in the assay on NCI/ADR-RES ovarian is 78.6 µM; in the assay on U251 CNS it was 97.1 µM; with NCI-H460 lung, more than 100 µM; in the assay with SW-620 colon, more than 100000 nM. The TGI with OVCAR-5 ovarian was more than 100 µM; in the assay on PC-3 prostate it was more than 100 µM; with T-47D breast, more than 100 µM; with SK-MEL-5 melanoma, more than 100 µM; in the assay on HCT-15 colon, more than 100 µM; in the assay with RXF 393 renal, more than 100000 nM. The TGI in the assay on NCI/ADR-RES ovarian, with U251 CNS, with NCI-H460 lung and in the assay with SW-620 colon was more than 100 µM each time.
`N#CCc1ncc(-c2ccc(C(F)(F)F)cc2)c(NC2CCCCCC2)n1`: the GI50 in the assay with OVCAR-5 ovarian is more than 10 µM; with PC-3 prostate, more than 10000 nM; in the assay with T-47D breast it was more than 10000 nM; in the assay on SK-MEL-5 melanoma, more than 10 µM; in the assay on HCT-15 colon, more than 10 µM; in the assay with RXF 393 renal, more than 10 µM. In addition, the GI50 with NCI/ADR-RES ovarian is more than 10 µM; with U251 CNS, more than 10 µM; in the assay on NCI-H460 lung it was more than 10 µM; with SW-620 colon, more than 10000 nM. The TGI in the assay on OVCAR-5 ovarian is more than 10 µM; with PC-3 prostate, more than 10 µM; in the assay with T-47D breast it was more than 10 µM; with SK-MEL-5 melanoma, more than 10 µM; with HCT-15 colon, more than 10 µM; with RXF 393 renal it was more than 10000 nM. Moreover, the TGI in the assay with NCI/ADR-RES ovarian, with U251 CNS, with NCI-H460 lung and in the assay on SW-620 colon was more than 10 µM each time.
Consider `COc1ccc2nc3cc(Cl)ccc3c(NCCCNCCC(C)O)c2c1` (stereo not drawn), for which the GI50 in the assay on OVCAR-5 ovarian was 0.331 µM; in the assay on PC-3 prostate, 496 nM; with T-47D breast, 1040 nM; in the assay on HCT-15 colon, 0.735 µM; in the assay with RXF 393 renal, 0.414 µM; in the assay on NCI/ADR-RES ovarian, 2.46 µM. In addition, the GI50 with U251 CNS was 0.495 µM; in the assay with NCI-H460 lung, 0.178 µM; in the assay with SW-620 colon, 234 nM. Moreover, the TGI stood at 2.46 µM in the assay with OVCAR-5 ovarian; 2.35 µM in the assay with PC-3 prostate; 4.04 µM in the assay with T-47D breast; 3.6 µM in the assay with HCT-15 colon; 1740 nM in the assay on RXF 393 renal; 15.5 µM in the assay with NCI/ADR-RES ovarian. For the same compound, the TGI with U251 CNS is 2.34 µM; with NCI-H460 lung, 0.561 µM; in the assay with SW-620 colon it was 2.25 µM.
